Reference: article PMC6152180, “Design, Synthesis and Evaluation of Hesperetin Derivatives as Potential Multifunctional Anti-Alzheimer Agents” (Molecules : A Journal of Synthetic Chemistry and Natural …, 2017)
Like-named read-outs stand apart in the source and are kept apart here.

Columns and labels:
AChE = molecular target: T1, AChE (Electrophorus electricus, UniProt O42275); assay: biochemical; conditions: for Selective Index: Selectivity Index = IC50 (BuChE)/IC50 (AChE)
T1 construct: purchased Sigma-Aldrich C3389-2KU
T1 sequence (O42275 24-633): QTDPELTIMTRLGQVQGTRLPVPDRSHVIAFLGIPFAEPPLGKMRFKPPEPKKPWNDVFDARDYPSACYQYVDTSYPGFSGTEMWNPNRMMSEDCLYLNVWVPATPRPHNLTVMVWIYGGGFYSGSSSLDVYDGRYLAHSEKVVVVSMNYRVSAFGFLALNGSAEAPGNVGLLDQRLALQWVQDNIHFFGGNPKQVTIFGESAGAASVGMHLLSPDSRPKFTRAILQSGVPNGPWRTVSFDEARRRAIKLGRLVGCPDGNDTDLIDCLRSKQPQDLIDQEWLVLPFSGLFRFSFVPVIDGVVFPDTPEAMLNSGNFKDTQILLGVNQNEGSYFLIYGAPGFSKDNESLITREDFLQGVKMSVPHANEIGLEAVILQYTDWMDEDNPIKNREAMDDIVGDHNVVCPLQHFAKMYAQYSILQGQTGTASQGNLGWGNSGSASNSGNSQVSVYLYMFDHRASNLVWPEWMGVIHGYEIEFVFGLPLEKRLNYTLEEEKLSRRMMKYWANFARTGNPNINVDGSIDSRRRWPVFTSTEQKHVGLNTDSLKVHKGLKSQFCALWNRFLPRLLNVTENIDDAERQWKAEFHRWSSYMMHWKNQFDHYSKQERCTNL
Method: (§1) Acetylcholinesterase (AChE, E.C. 3.1.1.7, obtained from electric eel) was purchased from Sigma-Aldrich (St. Louis, MO, USA, product code: C3389-2KU). Butyrylcholinesterase (BuChE, E.C. 3.1.1.8, obtained from equine serum) was purchased from Aladdin (Shanghai, China, product code: B128570-2KU). […] The compounds were dissolved in a minimum volume of DMSO (1%) and then diluted in 0.1 M KH2PO4/K2HPO4 buffer (pH 8.0) to provide a final concentration range.
(§2) Enzyme solutions were prepared to give 2.0 units/ mL in 2 mL aliquots. The assay medium contained phosphate buffer, pH 8.0 (1 mL), 50 μL of 0.01 M DTNB, 10 μL of enzyme, and 50 μL of 0.01 M substrate (ATC). The substrate was added to the assay medium containing enzyme, buffer, and DTNB with inhibitor after 15 min of incubation time. […] In vitro BuChE assay used the similar method described above [31]. Each concentration was assayed in triplicate.

BuChE = molecular target: T2, BuChE (Equus caballus, UniProt P81908); assay: biochemical
T2 construct: purchased Aladdin B128570-2KU; host or cells: equine serum
T2 sequence (P81908 whole entry): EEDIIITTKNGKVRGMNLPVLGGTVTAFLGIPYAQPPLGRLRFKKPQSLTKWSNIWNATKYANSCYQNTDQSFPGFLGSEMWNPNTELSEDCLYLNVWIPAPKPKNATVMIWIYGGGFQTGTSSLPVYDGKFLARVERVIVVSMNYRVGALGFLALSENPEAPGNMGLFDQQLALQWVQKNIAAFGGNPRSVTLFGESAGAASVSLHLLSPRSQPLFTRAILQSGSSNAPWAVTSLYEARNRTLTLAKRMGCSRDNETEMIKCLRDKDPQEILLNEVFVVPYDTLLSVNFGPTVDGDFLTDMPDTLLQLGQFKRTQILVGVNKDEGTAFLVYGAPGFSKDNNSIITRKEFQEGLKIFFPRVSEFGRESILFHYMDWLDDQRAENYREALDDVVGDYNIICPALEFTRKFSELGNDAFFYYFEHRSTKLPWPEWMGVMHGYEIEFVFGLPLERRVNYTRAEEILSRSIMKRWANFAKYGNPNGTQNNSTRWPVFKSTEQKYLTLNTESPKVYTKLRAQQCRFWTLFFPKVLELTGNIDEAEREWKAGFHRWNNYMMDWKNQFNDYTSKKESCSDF
Method: as §1, §2

[1] = Oxygen radical absorbance capacity-fluorescein (ORAC-FL) assay; conditions: Trolox equivalents, Trolox = 1
Method: Vitamin E analogue Trolox was used as the standard, and the results were expressed as Trolox equivalents.
The anti-oxidation activity was tested by using the oxygen radical absorbance capacity-fluorescein (ORAC-FL) assay [25, 32]. All the ORAC-assays measure antioxidant scavenging activity against peroxyl radical induced by 2,2′-azobis (2-amidinopropane) dihydrochloride (AAPH) at 37 °C.
The reaction was conducted with 75 mM phosphate buffer (pH 7.4) and the final reaction mixture was 200 μL. Fluorescein (120 μL, 300 nM final concentration) and antioxidant (20 μL) were placed in the wells of a black 96-well plate, and the mixture was incubated for 15 min at 37 °C. Then AAPH solution (60 μL, 12 mM final concentration) was added rapidly. […] 6-hydroxy-2,5,7,8-tetramethylchroman-2-carboxylic acid (Trolox) was used as a standard (1–5 μM, final concentration). A blank (FL + AAPH) using phosphate buffer instead of antioxidant and Trolox calibration were carried out in each assay. The samples were measured at different concentrations (1–5 μM), and at least three independent assays were performed for each sample. Fluorescence measurements were normalized based on the curve of the blank (without antioxidant). Antioxidant curves (fluorescence versus time) were normalized to the curve of the blank in the same assay, and then the area under the fluorescence decay curve (AUC) was calculated. The net AUC of a sample was obtained by subtracting the AUC from the blank. ORAC-FL values were expressed as Trolox equivalents by using the standard curve calculated for each sample, where the ORAC-FL value of Trolox was taken as one, indicating the antioxidant potency of the test compounds.

in vitro = conditions: human
Method: Thus, we used the methylthiazolyl tetrazolium (MTT) method [30] to perform a neurocyte (SH-SY5Y) toxicity test in vitro.
The SH-SY5Y cell line was seeded on 96-well plates at a density of 10^4 cells/well. […] Subsequently, 10 μL of 5 mg/mL MTT solution was added to each well and further incubated for 4 h at 37 °C. The solution was carefully removed, and each well was treated with DMSO (200 μL for each well). The optical density of the wells was then read on the microplate reader at 570 nm. All the tested compounds were performed in triplicate.

[2] = AChE from electric eel, means ± SEM of three experiments, read-out: AchE Inhibition, (IC50)
[3] = BuChE from equine serum, means ± SEM of three experiments, read-out: BuChE Inhibition, (IC50)

Row | Compound | IC50 (AChE; [2]) [nM] | Selective Index (AChE) | IC50 (BuChE; [3]) [nM] | ORAC [1] | viability at 48 h, 1 µM (in vitro) [%] | viability at 48 h, 10 µM (in vitro) [%] | viability at 48 h, 50 µM (in vitro) [%] | viability at 48 h, 100 µM (in vitro) [%] | IC50 (AChE) [nM] | IC50 (BuChE) [nM]
1 | COc1ccc(C2CC(=O)c3c(O)cc(OCC(=O)NCCc4ccccc4F)cc3O2)cc1O (stereo not shown) [Compound 4q, N-[2-(2-Fluorophenyl)ethyl]-2-[5-hydroxy-2-(3-hydroxy-4-methoxyphenyl)-4-oxochroman-7-yloxy]-acetamide] | 20.2 ± 1.88 | 111 | 2240 ± 77 | 2.5 μM of Trolox equivalent/μMof tested compound | 99 ± 5.28 | 92 ± 6.41 | 85.6 ± 3.95 | 66.5 ± 3.81 | – | –
2 | COc1ccc(C2CC(=O)c3c(O)cc(OCC(=O)NCCc4ccc(Br)cc4)cc3O2)cc1O (stereo not shown) [Compound 4n, N-[2-(4-Bromophenyl)ethyl]-2-[5-hydroxy-2-(3-hydroxy-4-methoxyphenyl)-4-oxo-chroman-7-yloxy]acetamide] | 17.2 ± 0.96 | 115 | 1990 ± 51 | 2.4 μM of Trolox equivalent/μMof tested compound | 99.8 ± 3.89 | 96.5 ± 4.24 | 78.8 ± 5.21 | 55.6 ± 5.34 | – | –
3 | COc1ccc(C2CC(=O)c3c(O)cc(OCC(=O)NCc4ccc(Br)cc4)cc3O2)cc1O (stereo not shown) [Compound 4d, N-(4-Bromobenzyl)-2-[5-hydroxy-2-(3-hydroxy-4-methoxyphenyl)-4-oxochroman-7-yloxy]-acetamide] | 15.7 ± 0.95 | 136 | 2130 ± 64 | 2.6 μM of Trolox equivalent/μMof tested compound | 99.9 ± 5.76 | 99.5 ± 6.23 | 86.2 ± 5.14 | 70 ± 4.78 | – | –
4 | COc1ccc(C2CC(=O)c3c(O)cc(OCC(=O)NCCc4ccc(F)cc4)cc3O2)cc1O (stereo not shown) [Compound 4o, N-[2-(4-Fluorophenyl)ethyl]-2-[5-hydroxy-2-(3-hydroxy-4-methoxyphenyl)-4-oxochroman-7-yloxy]-acetamide] | 13.5 ± 1.44 | 167 | 2260 ± 81 | – | 101 ± 6.31 | 97.2 ± 5.09 | 81.7 ± 3.52 | 59.7 ± 6.14 | – | –
5 | COc1ccc(C2CC(=O)c3c(O)cc(OCC(=O)NCc4ccccc4F)cc3O2)cc1O (stereo not shown) [Compound 4h, N-(2-Fluorobenzyl)-2-[5-hydroxy-2-(3-hydroxy-4-methoxyphenyl)-4-oxochroman-7-yloxy]-acetamide] | 15.2 ± 2.03 | 184 | 2800 ± 39 | 2.5 μM of Trolox equivalent/μMof tested compound | 100 ± 6.52 | 98.8 ± 5.38 | 75.8 ± 3.83 | 60.6 ± 4.27 | – | –
6 | COc1ccc(C2CC(=O)c3c(O)cc(OCC(=O)NCc4ccccc4OC)cc3O2)cc1O (stereo not shown) [Compound 4i, 2-[5-Hydroxy-2-(3-hydroxy-4-methoxyphenyl)-4-oxochroman-7-yloxy]-N-(2-methoxy-benzyl)acetamide] | 19.2 ± 0.66 | 103 | 1990 ± 134 | 2.7 μM of Trolox equivalent/μMof tested compound | 97.8 ± 6.32 | 96.7 ± 5.21 | 75 ± 4.12 | 55 ± 5.69 | – | –
7 | COc1ccc(CNC(=O)COc2cc(O)c3c(c2)OC(c2ccc(OC)c(O)c2)CC3=O)cc1 (stereo not shown) [Compound 4e, 2-[5-Hydroxy-2-(3-hydroxy-4-methoxyphenyl)-4-oxochroman-7-yloxy]-N-(4-methoxy-benzyl)acetamide] | 17.9 | 179 | 3210 ± 92 | 2.8 μM of Trolox equivalent/μMof tested compound | 105 ± 3.87 | 98.3 ± 5.27 | 87.1 ± 6.37 | 66.5 ± 4.95 | – | –
8 | COc1cccc(CNC(=O)COc2cc(O)c3c(c2)OC(c2ccc(OC)c(O)c2)CC3=O)c1 (stereo not shown) [Compound 4j, 2-[5-Hydroxy-2-(3-hydroxy-4-methoxyphenyl)-4-oxochroman-7-yloxy]-N-(3-methoxy-benzyl)acetamide] | 22.3 ± 1.54 | 110 | 2460 ± 83 | 3.1 μM of Trolox equivalent/μMof tested compound | 103 ± 6.47 | 98.2 ± 7.01 | 84.2 ± 3.2 | 70.8 ± 5.36 | – | –
9 | COc1ccc([C@@H]2CC(=O)c3c(O)cc(O)cc3O2)cc1O [Hesperetin, hesperetin] | – | 3 | – | – | 99 ± 5.87 | 93 ± 4.33 | 85.2 ± 3.43 | 67.3 ± 5.21 | 1020 ± 37 | 2900 ± 67
10 | COc1ccc(C2CC(=O)c3c(O)cc(OCC(=O)NCCc4ccccc4Cl)cc3O2)cc1O (stereo not shown) [Compound 4p, N-[2-(2-Chlorophenyl)ethyl]-2-[5-hydroxy-2-(3-hydroxy-4-methoxyphenyl)-4-oxo-chroman-7-yloxy]acetamide] | 17.2 ± 0.45 | 201 | 3470 ± 67 | 2.7 μM of Trolox equivalent/μMof tested compound | 99.3 ± 4.34 | 94.4 ± 3.9 | 83.1 ± 4.27 | 64.5 ± 4.82 | – | –
11 | COc1ccc(CCNC(=O)COc2cc(O)c3c(c2)OC(c2ccc(OC)c(O)c2)CC3=O)cc1 (stereo not shown) [Compound 4l, 2-[5-Hydroxy-2-(3-hydroxy-4-methoxyphenyl)-4-oxochroman-7-yloxy]-N-[2-(4-methoxy-phenyl)ethyl]acetamide] | 19.5 ± 0.77 | 143 | 2790 ± 53 | 2.9 μM of Trolox equivalent/μMof tested compound | 98.9 ± 4.07 | 94.5 ± 5.32 | 78.5 ± 3.21 | 63.2 ± 5.04 | – | –
12 | COc1ccc(C2CC(=O)c3c(O)cc(OCC(=O)NCc4ccc(Cl)cc4)cc3O2)cc1O (stereo not shown) [Compound 4b, N-(4-Chlorobenzyl)-2-[5-hydroxy-2-(3-hydroxy-4-methoxyphenyl)-4-oxochroman-7-yloxy]-acetamide] | 13.6 ± 0.78 | 258 | 3500 ± 66 | 2.7 μM of Trolox equivalent/μMof tested compound | 103 ± 4.56 | 95.9 ± 3.98 | 83.7 ± 4.12 | 65.4 ± 5.33 | – | –
13 | Nc1c2c(nc3ccccc13)CCCC2 [Tacrine, tacrine, reference compound] | – | – | – | <0.1 μM of Trolox equivalent/μMof tested compound | – | – | – | – | – | –
14 | COc1cc(/C=C/C(=O)CC(=O)/C=C/c2ccc(O)c(OC)c2)ccc1O [Curcumin, curcumin, reference compound] | – | – | – | – | 95.3 ± 5.21 | 90.9 ± 4.31 | 82.1 ± 3.07 | 71.8 ± 4.21 | – | –
15 | COc1ccc(C2CC(=O)c3c(O)cc(OCC(=O)NCc4ccccc4Cl)cc3O2)cc1O (stereo not shown) [Compound 4g, N-(2-Chlorobenzyl)-2-[5-hydroxy-2-(3-hydroxy-4-methoxyphenyl)-4-oxochroman-7-yloxy]acetamide] | 14 ± 0.95 | 116 | 1630 ± 78 | – | 97.8 ± 6.83 | 95.7 ± 5.67 | 79.3 ± 4.33 | 70.8 ± 5.32 | – | –
